# “And” between values parts separate entries of the source, which are not always exact repeats. Identical values can stand only once.
# Tested on: children with NS
# Test: Proteinuria (urine protein to creatinine ratio, UPCR) before and after addition of pioglitazone
# Assay type: in vivo, human
# Source text: In the following clinical studies, the efficacy and safety of adding pioglitazone to reduce proteinuria in children with NS was examined. All children with NS identified worldwide to have been treated with pioglitazone were included, with no patients excluded. Each patient had pioglitazone added to their other NS medications at the discretion of their treating pediatric nephrologist. All patient records were reviewed in a de-identified manner, with prior ethics committee approval at each institution. Data were analyzed based on defined time periods before and after the addition of pioglitazone. Patients were defined as having responded to pioglitazone (i.e., Responders) if their urine protein to creatinine ratio (UPCR, mg/mg) decreased from the period 0-1 month pre-pioglitazone to the period 0-1 month post-pioglitazone. Glomerular filtration rate estimation (eGFR) in patients <18 years was calculated using the revised Schwartz equation. In patients >18 years, eGFR was calculated as the mean of the revised Schwartz and CKD-EPI creatinine equations. Quantitative data, such as patient age, duration of NS, pioglitazone dosage, and outcomes of UPCR, TIS, and serum albumin, were summarized as means (standard errors of mean), while categorical data such as renal survival status were summarized as frequency (percent). Due to a small sample size, Responders and Non-responders were compared using Wilcoxon Rank Sum tests on quantitative variables and Fisher's exact tests on categorical variables. For both Responders and Non-responders, pre-pioglitazone to post-pioglitazone initiation changes in UPCR, TIS, and serum albumin levels were analyzed using Wilcoxon Signed Rank tests. Numbers of hospitalizations pre-pioglitazone and post-pioglitazone initiation were analyzed and compared using Poisson distributions. Statistical significance was assessed at both the 0.05 and 0.10 levels. All analyses were conducted using SPSS software ver. 26 (IBM, Armonk, NY, USA).
# [1] = Patient 1 (Responder), pre-PIO 8.5
# [2] = Patient 1 (Responder), vs 0-1 mo pre-PIO
# [3] = Patient 2 (Responder), pre-PIO 6
# [4] = Patient 2 (Responder), vs 0-1 mo pre-PIO
# [5] = Patient 3 (Responder), pre-PIO 11.2
# [6] = Patient 3 (Responder), vs 0-1 mo pre-PIO
# [7] = Patient 5 (Non-responder), pre-PIO 0.46
# [8] = Patient 5 (Non-responder), vs 0-1 mo pre-PIO
# [9] = Patient 6 (Responder), pre-PIO 2.16
# [10] = Patient 6 (Responder), vs 0-1 mo pre-PIO
# [11] = Patient 7 (Non-responder), pre-PIO 7.5
# [12] = Patient 7 (Non-responder), vs 0-1 mo pre-PIO
# [13] = Patient 8 (Responder), pre-PIO 4.66
# [14] = Patient 8 (Responder), vs 0-1 mo pre-PIO
# [15] = mean of 5 Responders, pre-PIO 6.50
# [16] = mean of 5 Responders, vs 0-1 mo pre-PIO
compound,measurement,setting,value
CCc1ccc(CCOc2ccc(CC3SC(=O)NC3=O)cc2)nc1 (centres unmarked) [pioglitazone],"UPCR in Responders, range",5-7 months post-pioglitazone,0.06 to 0.5 mg/mg
same,Patients with prompt and significant reductions in proteinuria (Responders),"Five of 8 pioglitazone-treated patients, UPCR decrease 0-1 mo pre- to 0-1 mo post-pioglitazone",63%
same,Post-PIO UPCR (0-1 mo; mg/mg),[1],4 mg/mg
same,Post-PIO UPCR (5-7 mo; mg/mg),[1],0.2 mg/mg
same,% UPCR Reduction (0-1 mo),[2],53% and 52.9%
same,% UPCR Reduction (5-7 mo),[2],98% and 97.6%
same,Post-PIO UPCR (0-1 mo; mg/mg),[3],2 mg/mg
same,Post-PIO UPCR (5-7 mo; mg/mg),[3],0.12 mg/mg
same,% UPCR Reduction (0-1 mo),[4],67% and 66.7%
same,% UPCR Reduction (5-7 mo),[4],98%
same,Post-PIO UPCR (0-1 mo; mg/mg),[5],6.4 mg/mg
same,Post-PIO UPCR (5-7 mo; mg/mg),[5],0.5 mg/mg
same,% UPCR Reduction (0-1 mo),[6],43% and 42.9%
same,% UPCR Reduction (5-7 mo),[6],96% and 95% and 95.5%
same,UPCR increase,"Patient 4 (Non-responder), over the next 1 month",133%
same,Post-PIO UPCR (0-1 mo; mg/mg),"Patient 4 (Non-responder), pre-PIO 28.8, urine obtained soon after IV albumin infusion",67.0 mg/mg and 67 mg/mg
same,% UPCR Reduction (0-1 mo),"Patient 4 (Non-responder), vs 0-1 mo pre-PIO",−133%
same,UPCR increase,"Patient 5 (Non-responder), 1-month post-PIO",139%
same,increase in proteinuria (UPCR),"Patient 5 (Non-responder), 5-7 months post-pioglitazone",24%
same,Post-PIO UPCR (0-1 mo; mg/mg),[7],1.1 mg/mg
same,Post-PIO UPCR (5-7 mo; mg/mg),[7],0.57 mg/mg
same,% UPCR Reduction (0-1 mo),[8],−139%
same,% UPCR Reduction (5-7 mo),[8],−23.9%
same,Post-PIO UPCR (0-1 mo; mg/mg),[9],1.09 mg/mg
same,Post-PIO UPCR (5-7 mo; mg/mg),[9],0.11 mg/mg
same,% UPCR Reduction (0-1 mo),[10],50% and 49.5%
same,% UPCR Reduction (5-7 mo),[10],95% and 94.9%
same,increase in proteinuria (UPCR),"Patient 7 (Non-responder), 5-7 months post-pioglitazone",77%
same,UPCR increase,"Patient 7 (Non-responder), over the next 1 month",13%
same,Post-PIO UPCR (0-1 mo; mg/mg),[11],8.5 mg/mg
same,Post-PIO UPCR (5-7 mo; mg/mg),[11],13.3 mg/mg
same,% UPCR Reduction (0-1 mo),[12],−13.3%
same,% UPCR Reduction (5-7 mo),[12],77.3%
same,Post-PIO UPCR (0-1 mo; mg/mg),[13],0.08 mg/mg
same,Post-PIO UPCR (5-7 mo; mg/mg),[13],0.06 mg/mg
same,% UPCR Reduction (0-1 mo),[14],98% and 98.3%
same,% UPCR Reduction (5-7 mo),[14],99% and 98.7%
same,"Post-PIO UPCR (0-1 mo; mg/mg), Mean (SEM)",[15],2.7 mg/mg and 2.71 mg/mg
same,"Post-PIO UPCR (5-7 mo; mg/mg), Mean (SEM)",[15],0.2 mg/mg and 0.20 mg/mg
same,"% UPCR Reduction (0-1 mo), Mean (SEM)",[16],62% and 62.1%
same,"% UPCR Reduction (5-7 mo), Mean (SEM)",[16],97%
same,"Post-PIO UPCR (5-7 mo; mg/mg), Mean (SEM)",mean of Non-responders (Patient 4 ESRD),6.94 mg/mg
same,"% UPCR Reduction (5-7 mo), Mean (SEM)",mean of Non-responders (Patient 4 NA),−50.6%
same,"Post-PIO UPCR (0-1 mo; mg/mg), Mean (SEM)","mean of Non-responders, pre-PIO 12.3",25.5 mg/mg
same,"% UPCR Reduction (0-1 mo), Mean (SEM)","mean of Non-responders, vs 0-1 mo pre-PIO",−95.0%
same,"UPCR reduction in Responders, range",within the first month of pioglitazone treatment,43-98%
same,"UPCR in Responders, range","within the first month of pioglitazone treatment, pre range 2.2-11.2",0.1 to 6.4 mg/mg

# From patent publication US20250281507A1, “METHODS OF TREATING NEPHROTIC SYNDROME” (The Research Institute at Nationwide Children's Hospital, priority 2021, published 2025)
